According to ChEMBL document CHEMBL5370585, “Exploration and Biological Evaluation of 1,3-Diamino-7H-pyrrol[3,2-f]quinazoline Derivatives as Dihydrofolate Reductase Inhibitors” (J Med Chem, 2023):
Converted amounts (≈) assume the structure as drawn. The source made the active and inactive calls. The calls are words filed in the database; no cut-off is given here.

How the values were obtained:
Staphylococcus aureus [1] = test: Antibacterial activity against Staphylococcus aureus ATCC 29213 incubated for 16 to 18 hrs by CLSI based broth dilution method; assay type: functional; conditions: time 16-18 hrs
Staphylococcus aureus [2] = test: Antibacterial activity against methicillin-resistant Staphylococcus aureus ATCC 43300 incubated for 16 to 18 hrs by CLSI based broth dilution method; assay type: functional; conditions: time 16-18 hrs
[3] = tested on: Staphylococcus epidermidis; test: Antibacterial activity against Staphylococcus epidermidis ATCC 12228 incubated for 16 to 18 hrs by CLSI based broth dilution method; assay type: functional; conditions: time 16-18 hrs
Acinetobacter baumannii = test: Antibacterial activity against Acinetobacter baumannii ATCC 19606 incubated for 16 to 18 hrs by CLSI based broth dilution method; assay type: functional; conditions: time 16-18 hrs
Enterococcus faecalis = test: Antibacterial activity against Enterococcus faecalis ATCC 29212 incubated for 16 to 18 hrs by CLSI based broth dilution method; assay type: functional; conditions: time 16-18 hrs
Escherichia coli [4] = test: Antibacterial activity against Escherichia coli ATCC 25922 incubated for 16 to 18 hrs by CLSI based broth dilution method; assay type: functional; conditions: time 16-18 hrs
Escherichia coli [5] = test: Antibacterial activity against Escherichia coli ATCC 25922 assessed as inhibition of bacterial growth at upto 8 times MIC measured upto 28 hrs by time kill curve assay; assay type: functional, organism-based
Staphylococcus aureus [6] = test: Antibacterial activity against methicillin-resistant Staphylococcus aureus ATCC 43300 assessed as inhibition of bacterial growth at upto 8 times MIC measured upto 28 hrs by time kill curve assay; assay type: functional, organism-based
Staphylococcus aureus [7] = test: Antibacterial activity against Staphylococcus aureus ATCC 29213 incubated for 16 to 18 hrs in absence of human plasma by CLSI based broth dilution method; assay type: functional; conditions: time 16-18 hrs
Staphylococcus aureus [8] = test: Antibacterial activity against Staphylococcus aureus ATCC 29213 incubated for 16 to 18 hrs in presence of human plasma by CLSI based broth dilution method; assay type: functional; conditions: time 16-18 hrs
Staphylococcus aureus [9] = test: Antibacterial activity against methicillin-resistant Staphylococcus aureus ATCC 43300 incubated for 16 to 18 hrs in absence of human plasma by CLSI based broth dilution method; assay type: functional; conditions: time 16-18 hrs
Staphylococcus aureus [10] = test: Antibacterial activity against methicillin-resistant Staphylococcus aureus ATCC 43300 incubated for 16 to 18 hrs in presence of human plasma by CLSI based broth dilution method; assay type: functional; conditions: time 16-18 hrs
Escherichia coli [11] = test: Antibacterial activity against Escherichia coli ATCC 25922 incubated for 16 to 18 hrs in absence of human plasma by CLSI based broth dilution method; assay type: functional; conditions: time 16-18 hrs
Escherichia coli [12] = test: Antibacterial activity against Escherichia coli ATCC 25922 incubated for 16 to 18 hrs in presence of human plasma by CLSI based broth dilution method; assay type: functional; conditions: time 16-18 hrs
Staphylococcus aureus [13] = test: Drug resistance against methicillin-resistant Staphylococcus aureus ATCC 43300 assessed as increase in MIC measured after 10 passaging for 24 hrs; assay type: functional, organism-based
MCF7 = test: Cytotoxicity against human MCF7 cells measured after 72 hrs by MTT assay; assay type: functional, cell-based; conditions: MCF7, 72 h
HGC-27 = test: Cytotoxicity against human HGC-27 cells measured after 72 hrs by MTT assay; assay type: functional, cell-based; conditions: HGC-27, 72 h
HCT-116 = test: Cytotoxicity against human HCT-116 cells measured after 72 hrs by MTT assay; assay type: functional, cell-based; conditions: HCT-116, 72 h
HepG2 = test: Cytotoxicity against human HepG2 cells measured after 72 hrs by MTT assay; assay type: functional, cell-based; conditions: HepG2, 72 h
[14] = Toxicity in ICR mouse assessed as median lethal dose administered as single IP dose measured upto 8 days; conditions: in vivo, time < 8 day
[15] = Toxicity in ip dosed ICR mouse assessed as animal death at high dose measured upto 8 days; assay type: organism-based; conditions: in vivo, 192 h, time < 8 day
[16] = Metabolic stability in mouse liver microsomes assessed as half life at 1 uM measured upto 60 mins in presence of NADPH by LC-MS/MS analysis; assay type: ADME, Microsome
[17] = Metabolic stability in mouse liver microsomes assessed as intrinsic clearance at 1 uM measured upto 60 mins in presence of NADPH by LC-MS/MS analysis; assay type: ADME, Microsome; conditions: read-out: CLH
[18] = Metabolic stability in mouse liver microsomes assessed as hepatic clearance at 1 uM measured upto 60 mins in presence of NADPH by LC-MS/MS analysis; assay type: ADME, Microsome; conditions: 1 h
[19] = Stability in mouse plasma assessed as parent compound remaining at 1 ug/ml measured after 10 mins by LC-MS/MS analysis; assay type: ADME, cell-free; conditions: at 1 µg/mL, read-out: Stability
[20] = Stability in mouse plasma assessed as parent compound remaining at 1 ug/ml measured after 20 mins by LC-MS/MS analysis; assay type: ADME, cell-free; conditions: at 1 µg/mL, read-out: Stability
[21] = Stability in mouse plasma assessed as parent compound remaining at 1 ug/ml measured after 30 mins by LC-MS/MS analysis; assay type: ADME, cell-free; conditions: at 1 µg/mL, read-out: Stability
[22] = Stability in mouse plasma assessed as parent compound remaining at 1 ug/ml measured after 45 mins by LC-MS/MS analysis; assay type: ADME, cell-free; conditions: at 1 µg/mL, read-out: Stability
[23] = Stability in mouse plasma assessed as parent compound remaining at 1 ug/ml measured after 60 mins by LC-MS/MS analysis; assay type: ADME, cell-free; conditions: at 1 µg/mL, read-out: Stability
[24] = Stability in mouse plasma assessed as parent compound remaining at 1 ug/ml measured after 120 mins by LC-MS/MS analysis; assay type: ADME, cell-free; conditions: at 1 µg/mL, read-out: Stability
[25] = Stability in mouse plasma assessed as parent compound remaining at 1 ug/ml measured after 240 mins by LC-MS/MS analysis; assay type: ADME, cell-free; conditions: at 1 µg/mL, read-out: Stability
[26] = Stability in mouse plasma assessed as parent compound remaining at 1 ug/ml measured after 1440 mins by LC-MS/MS analysis; assay type: ADME, cell-free; conditions: at 1 µg/mL, read-out: Stability
[27] = Stability in mouse plasma assessed as parent compound remaining at 5 ug/ml measured after 10 mins by LC-MS/MS analysis; assay type: ADME, cell-free; conditions: at 5 µg/mL, read-out: Stability
[28] = Stability in mouse plasma assessed as parent compound remaining at 5 ug/ml measured after 20 mins by LC-MS/MS analysis; assay type: ADME, cell-free; conditions: at 5 µg/mL, read-out: Stability
[29] = Stability in mouse plasma assessed as parent compound remaining at 5 ug/ml measured after 30 mins by LC-MS/MS analysis; assay type: ADME, cell-free; conditions: at 5 µg/mL, read-out: Stability
[30] = Stability in mouse plasma assessed as parent compound remaining at 5 ug/ml measured after 45 mins by LC-MS/MS analysis; assay type: ADME, cell-free; conditions: at 5 µg/mL, read-out: Stability
[31] = Stability in mouse plasma assessed as parent compound remaining at 5 ug/ml measured after 60 mins by LC-MS/MS analysis; assay type: ADME, cell-free; conditions: at 5 µg/mL, read-out: Stability
[32] = Stability in mouse plasma assessed as parent compound remaining at 5 ug/ml measured after 120 mins by LC-MS/MS analysis; assay type: ADME, cell-free; conditions: at 5 µg/mL, read-out: Stability
[33] = Stability in mouse plasma assessed as parent compound remaining at 5 ug/ml measured after 240 mins by LC-MS/MS analysis; assay type: ADME, cell-free; conditions: at 5 µg/mL, read-out: Stability
[34] = Stability in mouse plasma assessed as parent compound remaining at 5 ug/ml measured after 1440 mins by LC-MS/MS analysis; assay type: ADME, cell-free; conditions: at 5 µg/mL, read-out: Stability
[35] = Half life in ICR mouse at 10 mg/kg, ip measured after 5 to 24 hrs post administration by LC-MS/MS analysis; assay type: ADME, organism-based; conditions: in vivo, time 5-24 hrs
[36] = AUC (0 to infinity) in ICR mouse at 10 mg/kg, ip measured after 5 to 24 hrs post administration by LC-MS/MS analysis; assay type: ADME, organism-based; set-up: time upper 24 hrs, dose 10 mg/kg, time lower 5 hrs, route ip; conditions: in vivo
[37] = AUC (0 to t) in ICR mouse at 10 mg/kg, ip measured after 5 to 24 hrs post administration by LC-MS/MS analysis; assay type: ADME, organism-based; set-up: time 5-24 hrs, dose 10 mg/kg, route ip; conditions: in vivo
Staphylococcus aureus [38] = test: Antibacterial activity against Methicillin-resistant Staphylococcus aureus ATCC 43300 infected in ip dosed ICR mouse thigh infection model assessed as reduction in bacterial growth measured after 24 hrs post-treatment; assay type: functional, organism-based; conditions: dose lower 7.5 mg/kg, dose upper […]
Staphylococcus aureus [39] = test: Antibacterial activity against Methicillin-resistant Staphylococcus aureus ATCC 43300 infected in ICR mouse thigh infection model assessed as survival rate at 7.5 mg/kg, ip measured after 24 hrs post-treatment relative to control; assay type: functional
Staphylococcus aureus [40] = test: Antibacterial activity against Methicillin-resistant Staphylococcus aureus ATCC 43300 infected in ICR mouse thigh infection model assessed as survival rate at 15 mg/kg, ip measured after 24 hrs post-treatment relative to control; assay type: functional

In the case of Nc1nc(N)c2c(ccc3c2ccn3Cc2ccc3scnc3c2)n1, the MIC (Staphylococcus aureus [1]) is reported as 0.125 µg/mL (≈ 0.361 µM), the MIC (Staphylococcus aureus [2]) is reported as 0.016 µg/mL (≈ 0.0462 µM) and the MIC [3] is reported as no more than 0.004 µg/mL. The MIC (Acinetobacter baumannii) was 1 µg/mL (≈ 2.89 µM), the MIC (Enterococcus faecalis) was 0.03 µg/mL (≈ 0.0866 µM) and the MIC (Escherichia coli [4]) was 0.06 µg/mL (≈ 0.173 µM). For the same compound, the Activity (Escherichia coli [5]) was “Active”, the Activity (Staphylococcus aureus [6]) was “Active” and the MIC (Staphylococcus aureus [7]) was 0.03 µg/mL (≈ 0.0866 µM). It also gave an MIC (Staphylococcus aureus [8]) of 0.5 µg/mL, an MIC (Staphylococcus aureus [9]) of 0.016 µg/mL (≈ 0.0462 µM) and an MIC (Staphylococcus aureus [10]) of 0.5 µg/mL. For the same compound, the MIC (Escherichia coli [11]) was 0.06 µg/mL (≈ 0.173 µM), the MIC (Escherichia coli [12]) was 0.125 µg/mL and the Activity (Staphylococcus aureus [13]) was “Active”. It also gave an IC50 (MCF7) of 580 nM, an IC50 (HGC-27) of 1 nM and an IC50 (HCT-116) of 5 nM. The IC50 (HepG2) was 120 nM, the LD50 at 192 h [14] was 283 mg/kg and the Activity [15] was “Toxic”. The half-life at 1 µM [16] was 0.203 h, the microsomal CLint at 1 µM [17] was 114 µL/min/mg and the CLH [18] was 74.9 mL/min/kg. For the same compound, the remaining at 10 min, 1 ug/ml [19] was 96.2%, the remaining at 20 min, 1 ug/ml [20] was 94.7% and the remaining at 0.5 h, 1 ug/ml [21] was 93.8%. The remaining at 0.75 h, 1 ug/ml [22] was 93.1%, the remaining at 1 h, 1 ug/ml [23] was 92.4% and the remaining at 2 h, 1 ug/ml [24] was 92.5%. The remaining at 4 h, 1 ug/ml [25] was 92.6%, the remaining at 24 h, 1 ug/ml [26] was 92.3% and the remaining at 10 min, 5 ug/ml [27] was 96.7%. It also gave a remaining at 20 min, 5 ug/ml [28] of 96%, a remaining at 0.5 h, 5 ug/ml [29] of 95.8% and a remaining at 0.75 h, 5 ug/ml [30] of 95.2%. The remaining at 1 h, 5 ug/ml [31] was 95.4%, the remaining at 2 h, 5 ug/ml [32] was 95.5% and the remaining at 4 h, 5 ug/ml [33] was 95.2%. The remaining at 24 h, 5 ug/ml [34] was 95.5%, the half-life [35] was 2.82 h and the AUC [36] was 367.6 ng·h/mL. For the same compound, the AUCt [37] was 2280.12 ng·h/mL, the Activity (Staphylococcus aureus [38]) was “Active” and the survival at 7.5 mg/kg (Staphylococcus aureus [39]) was 50%. It also gave a survival at 15 mg/kg (Staphylococcus aureus [40]) of 66%.
